Measurements published in patent US9057082B2, “Generation of methane from hydrocarbon bearing materials” (Transworld Technologies Inc., priority 2004, dated 2015).

Tested on: anaerobic microbial consortium or consortia indigenous to the coal
Assay: Hydrogen gas accumulated in headspace of amended Dietz coal slurries
Conditions: approximately 134 days of incubation
Description: Core samples from the Tongue River area in the northwest portion of the Powder River Basin, Dietz coal seam, were utilized for these experiments. The core was collected in the field in a manner that prevented oxygen exposure by placing it into a steel canister that was purged with argon. Gas in the core used for the experiments described herein was extensively desorbed during long-term storage and previous use.
Coal samples were passed through a small jaw crusher twice resulting in pulverized coal (to yield a particle size similar to that of granulated sugar) that was measured into serum bottles (5 g per bottle); manipulations were carried out in an anaerobic environment. […]
Bromoethanesulfonic acid (BESA), a methanogen inhibitor, was added to selected incubations. […] Hydrogen production in the amended slurries relative to sterile coal slurries was measured to identify the degree of stimulation.
After approximately 134 days of incubation, all of the coal slurries were sampled for the aqueous phase (0.5 of 10 ml) and for gas analysis including hydrogen, methane, carbon dioxide, radioactive methane, and radioactive carbon dioxide. Methane and carbon dioxide were determined using a Hewlett Packard 5890 gas chromatograph equipped with a thermal conductivity detector. Radiolabeled methane and carbon dioxide were determined using a gas proportional counter (Innus Systems, Tampa, Fla.). […]

Bromoethanesulfonic acid [BESA]
hydrogen gas accumulation in the headspace, result in words: Hydrogen accumulated to the greatest extent
